Results reported in PubChem BioAssay AID330 (DTP/NCI, 2004).
“And” between values parts separate entries of the source, which are not always exact repeats. Identical values can stand only once. Toxic doses and inconclusive results are not listed. Rule for the calls: active = survival T/C of 150% or more; inactive = T/C below 125% in these data.

Tested on: P388 leukemia ip, CD2F1 mice, survival T/C
Test: NCI In Vivo Anticancer Drug Screen. Data for tumor model P388 Leukemia (intraperitoneal) in CD2F1 (CDF1) mice
Conditions: endpoint: median survival time, higher = longer survival
Summary of the method: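 Mice carrying the transplanted tumor received test compound or vehicle. Survival was recorded in each group, and the value is the treated-group measurement divided by that of the vehicle-treated control group.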

[1] = dose: 50.0 mg/kg/injection, schedule: Q01DX009 (ip), vehicle: saline
[2] = dose: 100.0 mg/kg/injection, schedule: Q01DX009 (ip), vehicle: saline
[3] = dose: 200.0 mg/kg/injection, schedule: Q01DX009 (ip), vehicle: saline
[4] = dose: 100.0 mg/kg/injection, schedule: Q01DX009 (ip), vehicle: saline with Tween-80
[5] = dose: 200.0 mg/kg/injection, schedule: Q01DX009 (ip), vehicle: saline with Tween-80
[6] = dose: 60.0 mg/kg/injection, schedule: Q01DX005 (ip), vehicle: saline with Tween-80

Measured: T/C

O=C1CCC2=C3C4CCCC5OC6CC(=O)CCC6=C(C6CCCC(OC2C1)C36)C54 (stereo not drawn)
inactive: [1] 96 % of control | [2] 100 % of control | [3] 96 % of control | dose: 400.0 mg/kg/injection, schedule: Q01DX009 (ip), vehicle: saline 100 % of control

Cc1cc2nc(NN=O)sc2cc1C
inactive: dose: 3.12 mg/kg/injection, schedule: Q01DX009 (ip), vehicle: water 109 % of control | dose: 6.25 mg/kg/injection, schedule: Q01DX009 (ip), vehicle: water 97 % of control | dose: 12.5 mg/kg/injection, schedule: Q01DX009 (ip), vehicle: water 106 % of control | dose: 25.0 mg/kg/injection, schedule: Q01DX009 (ip), vehicle: water 104 % of control (2×) and 97 % of control | dose: 50.0 mg/kg/injection, schedule: Q01DX009 (ip), vehicle: water 102 % of control and 103 % of control and 108 % of control | dose: 100.0 mg/kg/injection, schedule: Q01DX009 (ip), vehicle: water 123 % of control

CCOC(=O)[C]1([Sn]([CH3])([CH3])[CH3])N=NC(C(=O)OC)=C1C(=O)OC (stereo not drawn)
inactive: dose: 0.78 mg/kg/injection, schedule: Q01DX009 (ip), vehicle: saline 98 % of control | dose: 1.56 mg/kg/injection, schedule: Q01DX009 (ip), vehicle: saline 89 % of control

O=[N+]([O-])CCc1ccc(OC2OC(CO)C(O)C(O)C2O)cc1 (stereo not drawn)
inactive: dose: 100.0 mg/kg/injection, schedule: Q04DX002 (ip), vehicle: saline 104 % of control | dose: 200.0 mg/kg/injection, schedule: Q04DX002 (ip), vehicle: saline 102 % of control | dose: 400.0 mg/kg/injection, schedule: Q04DX002 (ip), vehicle: saline 97 % of control

C/C(=N/NC(N)=O)c1cccc(/C(C)=N/NC(N)=O)n1.[Cl][Cu][Cl]
inactive: dose: 3.12 mg/kg/injection, schedule: Q01DX009 (ip), vehicle: saline 108 % of control | dose: 6.25 mg/kg/injection, schedule: Q01DX009 (ip), vehicle: saline 94 % of control | dose: 12.5 mg/kg/injection, schedule: Q01DX009 (ip), vehicle: saline 99 % of control

CCCCCCC(=O)/C=C/c1cccc(OCOCC)c1
inactive: dose: 50.0 mg/kg/injection, schedule: Q01DX009 (ip), vehicle: saline with Tween-80 111 % of control and 113 % of control and 122 % of control | [4] 115 % of control and 122 % of control | [5] 108 % of control and 119 % of control

Cc1cc(=O)c2ccc(N(C)C)cc2[nH]1
inactive: dose: 50.0 mg/kg/injection, schedule: Q01DX005 (ip), vehicle: saline with Tween-80 95 % of control | dose: 100.0 mg/kg/injection, schedule: Q01DX005 (ip), vehicle: saline with Tween-80 96 % of control | dose: 200.0 mg/kg/injection, schedule: Q01DX005 (ip), vehicle: saline with Tween-80 101 % of control

C/C=c1/[nH]c(=O)/c(=C\c2ccc(Cl)cc2)[nH]c1=O
inactive: dose: 50.0 mg/kg/injection, schedule: Q01DX009 (ip), vehicle: Klucel (hydroxypropylcellulose) (HPC) 91 % of control | dose: 100.0 mg/kg/injection, schedule: Q01DX009 (ip), vehicle: Klucel (hydroxypropylcellulose) (HPC) 93 % of control | dose: 200.0 mg/kg/injection, schedule: Q01DX009 (ip), vehicle: Klucel (hydroxypropylcellulose) (HPC) 94 % of control

CC(C)(Br)C(=O)NN=C(c1ccccc1)c1ccccc1
inactive: [1] 100 % of control | [2] 100 % of control | [3] 100 % of control

Clc1cccc(NCNC2Nc3ccccc3N2)c1
inactive: dose: 15.0 mg/kg/injection, schedule: Q01DX005 (ip), vehicle: saline with Tween-80 96 % of control | dose: 30.0 mg/kg/injection, schedule: Q01DX005 (ip), vehicle: saline with Tween-80 97 % of control | [6] 93 % of control

CCOC(=O)Nc1cc2c(c(N)n1)N=C(c1ccc(Cl)cc1)CN2
inactive: dose: 1.5 mg/kg/injection, schedule: Q01DX009 (ip), vehicle: Klucel (hydroxypropylcellulose) (HPC) 92 % of control | dose: 3.0 mg/kg/injection, schedule: Q01DX009 (ip), vehicle: Klucel (hydroxypropylcellulose) (HPC) 111 % of control | dose: 12.0 mg/kg/injection, schedule: Q01DX009 (ip), vehicle: Klucel (hydroxypropylcellulose) (HPC) 95 % of control | dose: 12.5 mg/kg/injection, schedule: Q01DX009 (ip), vehicle: Klucel (hydroxypropylcellulose) (HPC) 86 % of control | dose: 50.0 mg/kg/injection, schedule: Q04DX003 (ip), vehicle: Klucel (hydroxypropylcellulose) (HPC) 101 % of control

CC(C)(CO)CBr
inactive: dose: 100.0 mg/kg/injection, schedule: Q01DX009 (ip), vehicle: saline sonified 100 % of control | dose: 200.0 mg/kg/injection, schedule: Q01DX009 (ip), vehicle: saline sonified 95 % of control | dose: 400.0 mg/kg/injection, schedule: Q01DX009 (ip), vehicle: saline sonified 95 % of control

Cc1ccc(S(=O)(=O)N/N=C/c2ccc(C(=O)O)cc2)cc1
inactive: dose: 12.5 mg/kg/injection, schedule: Q01DX009 (ip), vehicle: other 105 % of control | dose: 25.0 mg/kg/injection, schedule: Q01DX009 (ip), vehicle: other 111 % of control | dose: 50.0 mg/kg/injection, schedule: Q01DX009 (ip), vehicle: other 109 % of control | dose: 100.0 mg/kg/injection, schedule: Q01DX009 (ip), vehicle: other 100 % of control | dose: 200.0 mg/kg/injection, schedule: Q01DX009 (ip), vehicle: other 95 % of control | dose: 400.0 mg/kg/injection, schedule: Q01DX009 (ip), vehicle: other 105 % of control

CCOC(=O)C(C)P(=O)(OC)OC (stereo not drawn)
inactive: dose: 50.0 mg/kg/injection, schedule: Q01DX005 (ip), vehicle: saline 100 % of control | dose: 100.0 mg/kg/injection, schedule: Q01DX005 (ip), vehicle: saline 98 % of control | dose: 200.0 mg/kg/injection, schedule: Q01DX005 (ip), vehicle: saline 103 % of control

CCN(CC)CCOc1ccc(C2=C(c3ccccc3)CCc3cc(OC)ccc32)cc1
inactive: dose: 100.0 mg/kg/injection, schedule: Q04DX003 (ip), vehicle: saline with Tween-80 100 % of control | dose: 200.0 mg/kg/injection, schedule: Q04DX003 (ip), vehicle: saline with Tween-80 104 % of control

COCCn1c2nc(=O)n(-c3ccccc3)c(=O)c-2nc2c1CCCC2
inactive: dose: 25.0 mg/kg/injection, schedule: Q01DX009 (ip), vehicle: saline 100 % of control | [1] 93 % of control | [2] 94 % of control | [3] 116 % of control

O=C1/C(=C/N2CCN(c3ccccc3)CC2)Cc2c(Cl)cccc21
inactive: dose: 100.0 mg/kg/injection, schedule: Q04DX002 (ip), vehicle: Klucel (hydroxypropylcellulose) (HPC) 105 % of control | dose: 200.0 mg/kg/injection, schedule: Q04DX002 (ip), vehicle: Klucel (hydroxypropylcellulose) (HPC) 114 % of control | dose: 400.0 mg/kg/injection, schedule: Q04DX002 (ip), vehicle: Klucel (hydroxypropylcellulose) (HPC) 102 % of control

COC1=C[C@@H](C)[C@@H]2C[C@H]3O[C@@H](OC4OC(CO)C(O)C(O)C4O)C[C@H]4C(C)=C(OC)C(=O)[C@H]([C@@]2(C)C1=O)[C@@]34C (stereo partly drawn)
inactive: dose: 4.0 mg/kg/injection, schedule: Q01DX005 (ip), vehicle: Klucel (hydroxypropylcellulose) (HPC) 96 % of control | dose: 8.0 mg/kg/injection, schedule: Q01DX005 (ip), vehicle: Klucel (hydroxypropylcellulose) (HPC) 94 % of control | dose: 16.0 mg/kg/injection, schedule: Q01DX005 (ip), vehicle: Klucel (hydroxypropylcellulose) (HPC) 103 % of control

CCC(CC)COC(=O)c1ccccc1C(=O)OCC(CC)CC
inactive: [4] 110 % of control and 96 % of control | [5] 101 % of control and 117 % of control

CN(C)Cc1cn(C[Si](C)(C)C)c2ccccc12
inactive: [6] 112 % of control

C=CC(C)n1[nH]c(=O)n(-c2ccc(O)c([N+](=O)[O-])c2)c1=O (stereo not drawn)
inactive: [6] 100 % of control | dose: 120.0 mg/kg/injection, schedule: Q01DX005 (ip), vehicle: saline with Tween-80 98 % of control | dose: 240.0 mg/kg/injection, schedule: Q01DX005 (ip), vehicle: saline with Tween-80 94 % of control
